# Test results reported in publication PMC6853232, “Discovery and evaluation of novel synthetic 5-alkyl-4-oxo-4,5-dihydro-[1,2,4]triazolo[4,3-a]quinoxaline-1-carbox-amide derivatives as anti-inflammatory agents” (Journal of Enzyme Inhibition and Medicinal Chemistry, 2019).
# Marks after values point to notes of the source that are not given here.
# System: RAW264.7 cells
# Assay: MTT assay for cell viability
# Format: cell-based, mouse
# Settings: LPS 1 μg/mL
# Protocol: The RAW 264.7 mouse macrophage cell line was obtained from the China Cell Line Bank (Beijing, China). Cells were cultured in complete medium (DMEM supplemented with 10% heat-inactivated FBS, 3 mM glutamine and antibiotics (100 U/mL penicillin and 100 U/mL streptomycin)) at 37 °C in a humidified incubator containing 5% CO2 and 95% air. […]
# Cell viability studies induced by synthesised compounds were evaluated by 3-(4,5-dimethylthiazol-2-yl)-2,5-diphenyltetrazolium bromide (MTT) assay. RAW264.7 macrophages were seeded in 96-well plates at a density of 5 × 10^5 cells/mL in complete medium and incubated for 24 h (100 µL/well). Then the cells were treated with different concentrations of synthesised compounds for 24 h. 150 µL MTT (5 g/L in PBS) was added to each well and the cells were further incubated for 4 h. The supernatant was removed and the cells were lysed with 150 µL/well DMSO. The optical density was measured at 570 nm on a microplate reader (Thermo Scientific, MA, USA).
substance,measurement,value
"lipopolysaccharide [LPS, reference compound]",Cell viability (%),98.60 ± 2.12^a %
